The NIST ThermoML archive (doi:10.1016/j.jct.2013.11.020)
Numbers after ± are expanded uncertainties.

Assays:
[1] = 298.15 K; 101.33 kPa; Liquid; Vibrating tube method
[2] = refractive index (Na D-line) (dimensionless); settings: 298.15 K; 101.33 kPa; Liquid; Standard Abbe refractometry

Row | SMILES | mass density [1] [kg/m3] | refractive index [2]
1 | CCCC[n+]1ccn(C)c1.O=S(=O)([N-]S(=O)(=O)C(F)(F)F)C(F)(F)F | 1436.35 ± 0.61 | 1.42706 ± 0.00037
2 | CCCn1cc[n+](C)c1.O=S(=O)([N-]S(=O)(=O)C(F)(F)F)C(F)(F)F | 1474.44 ± 0.65 | 1.42526 ± 0.00037
3 | CCCCn1cc[n+](C)c1.COS(=O)(=O)[O-] [1-butyl-3-methylimidazolium methyl sulfate] | 1212.59 ± 0.41 | 1.47792 ± 0.00037
4 | C1=CCCCC1 [cyclohexene] | 805.69 ± 0.24 | 1.44378 ± 0.00037
5 | CCc1ccccc1 [ethylbenzene] | 862.51 ± 0.13 | 1.49304 ± 0.00031
6 | CCCCCC [hexane] | 655.19 ± 0.2 | 1.37234 ± 0.00033
7 | Cc1ccccc1 [toluene] | 862.17 ± 0.13 | 1.49399 ± 0.00031
